Results taken from ChEMBL document CHEMBL4402573, “Discovery and Optimization of α-Mangostin Derivatives as Novel PDE4 Inhibitors for the Treatment of Vascular Dementia” (J Med Chem, 2020).
The source made the active and inactive calls. The calls are words filed in the database; no cut-off is given here.

Tests used:
[1] = biological target: cGMP-specific 3',5'-cyclic phosphodiesterase (Homo sapiens, UniProt O76074); assay: Inhibition of human PDE5A1 (535 to 860 residues) expressed in Escherichia coli BL21 codon-plus cells using [3H]cGMP as substrate incubated for 15 mins by liquid scintillation counting method
[2] = biological target: High affinity cAMP-specific and IBMX-insensitive 3',5'-cyclic phosphodiesterase 8A (Homo sapiens, UniProt O60658); assay: Inhibition of human PDE8A1 (480 to 820 residues) expressed in Escherichia coli BL21 codon-plus cells using [3H]cAMP as substrate incubated for 15 mins by liquid scintillation counting method
[3] = Stability in rat liver microsomes assessed as half life at 0.5 uM; assay type: ADME, Microsome
Mus musculus [4] = assay: Anti-VaD activity against UCCAO-induced spatial memory deficient C57BL/6J mouse model assessed as improvement in spatial learning and memory by measuring increase in frequency of platform area crossings at 10 mg/kg, po administered for 21 days by Morris water maze test; assay type: functional, organism-based
[5] = Protein binding in rat plasma at 1 uM by LC-MS/MS analysis; assay type: ADME, cell-free; details: read-out: PPB
[6] = Oral bioavailability in Sprague-Dawley rat at 5 mg/kg measured upto 24 hrs by LC-MS/MS analysis; assay type: ADME, organism-based; details: in vivo
[7] = Half life in Sprague-Dawley rat at 2.5 mg/kg, iv measured upto 24 hrs by LC-MS/MS analysis; assay type: ADME, organism-based; details: in vivo
Homo sapiens [8] = species on record: Homo sapiens; assay: Selectivity index, ratio of IC50 for human PDE9A2 (181 to 506 residues) expressed in Escherichia coli BL21 codon-plus cells to IC50 for human PDE4D2 (86 to 413 residues) expressed in Escherichia coli BL21 codon-plus cells
Homo sapiens [9] = species on record: Homo sapiens; assay: Selectivity index, ratio of IC50 for human PDE7A1 (130 to 482 residues) expressed in Escherichia coli BL21 codon-plus cells to IC50 for human PDE4D2 (86 to 413 residues) expressed in Escherichia coli BL21 codon-plus cells
Homo sapiens [10] = species on record: Homo sapiens; assay: Selectivity index, ratio of IC50 for human PDE10A2 (449 to 770 residues) expressed in Escherichia coli BL21 codon-plus cells to IC50 for human PDE4D2 (86 to 413 residues) expressed in Escherichia coli BL21 codon-plus cells
[11] = biological target: T1, 3',5'-cyclic-AMP phosphodiesterase 4B (Homo sapiens, UniProt Q07343); assay: Partial inhibition of human PDE4B1 (1 to 736 residues) expressed in Escherichia coli BL21 codon-plus cells using [3H]cAMP as substrate incubated with compound at high concentrations for 15 mins by liquid scintillation counting method relative to control
Mus musculus [12] = assay: Anti-VaD activity against UCCAO-induced spatial memory deficient C57BL/6J mouse model assessed as improvement in spatial learning and memory by measuring reduction in escape latency at 10 mg/kg, po administered for 21 days by Morris water maze test; assay type: functional, organism-based
[13] = biological target: High affinity cGMP-specific 3',5'-cyclic phosphodiesterase 9A (Homo sapiens, UniProt O76083); assay: Inhibition of human PDE9A2 (181 to 506 residues) expressed in Escherichia coli BL21 codon-plus cells using [3H]cGMP as substrate incubated for 15 mins by liquid scintillation counting method
[14] = biological target: T1, 3',5'-cyclic-AMP phosphodiesterase 4B; assay: Inhibition of human PDE4B2 (152 to 487 residues) expressed in Escherichia coli BL21 codon-plus cells using [3H]cAMP as substrate incubated for 15 mins by liquid scintillation counting method
[15] = biological target: cGMP-inhibited 3',5'-cyclic phosphodiesterase 3A (Homo sapiens, UniProt Q14432); assay: Inhibition of human PDE3A (679 to 1087 residues) expressed in Escherichia coli BL21 codon-plus cells using [3H]cAMP as substrate incubated for 15 mins by liquid scintillation counting method
[16] = Cmax in Sprague-Dawley rat at 5 mg/kg, po measured upto 24 hrs by LC-MS/MS analysis; assay type: ADME, organism-based; parameters: dose 5 mg/kg, route oral; details: in vivo
[17] = Toxicity in Beagle dog assessed as animals exhibiting emesis at 5 mg/kg, po observed for 180 mins; assay type: organism-based, Canis lupus familiaris; details: in vivo, 3 h
[18] = Tmax in Sprague-Dawley rat at 2.5 mg/kg, iv measured upto 24 hrs by LC-MS/MS analysis; assay type: ADME, organism-based; details: in vivo
Cytochrome P450 3A4 = Cytochrome P450 3A4 (Homo sapiens, UniProt P08684); assay: Inhibition of human CYP3A4; assay type: ADME
[19] = Acute toxicity in Kunming mouse at >=1.5 g/kg, po administered as single dose and measured for 14 days; assay type: organism-based; details: in vivo, 1500 mg/kg, 336 h
Homo sapiens [20] = species on record: Homo sapiens; assay: Selectivity index, ratio of IC50 for human PDE1B (10 to 487 residues) expressed in Escherichia coli BL21 codon-plus cells to IC50 for human PDE4D2 (86 to 413 residues) expressed in Escherichia coli BL21 codon-plus cells
[21] = AUC(0 to infinity) in Sprague-Dawley rat at 2.5 mg/kg, iv measured upto 24 hrs by LC-MS/MS analysis; assay type: ADME, organism-based; parameters: dose 2.5 mg/kg, route intravenous, time infinity; details: in vivo
[22] = Tmax in Sprague-Dawley rat at 5 mg/kg, po measured upto 24 hrs by LC-MS/MS analysis; assay type: ADME, organism-based; details: in vivo
[23] = biological target: cAMP and cAMP-inhibited cGMP 3',5'-cyclic phosphodiesterase 10A (Homo sapiens, UniProt Q9Y233); assay: Inhibition of human PDE10A2 (449 to 770 residues) expressed in Escherichia coli BL21 codon-plus cells using [3H]cAMP as substrate incubated for 15 mins followed by substrate addition by liquid scintillation counting method
[24] = Toxicity in Beagle dog assessed as animals exhibiting emesis at 10 mg/kg, po observed for 180 mins; assay type: organism-based, Canis lupus familiaris; details: in vivo, 3 h
[25] = Cmax in Sprague-Dawley rat at 2.5 mg/kg, iv measured upto 24 hrs by LC-MS/MS analysis; assay type: ADME, organism-based; parameters: dose 2.5 mg/kg, route intravenous; details: in vivo
Cytochrome P450 1A2 = Cytochrome P450 1A2 (Homo sapiens, UniProt P05177); assay: Inhibition of human CYP1A2; assay type: ADME
[26] = biological target: Voltage-gated inwardly rectifying potassium channel KCNH2 (Homo sapiens, UniProt Q12809); assay: Inhibition of human ERG expressed in CHO cells by automated patch clamp electrophysiology; assay type: cell-based
Homo sapiens [27] = species on record: Homo sapiens; assay: Selectivity index, ratio of IC50 for human PDE8A1 (480 to 820 residues) expressed in Escherichia coli BL21 codon-plus cells to IC50 for human PDE4D2 (86 to 413 residues) expressed in Escherichia coli BL21 codon-plus cells
[28] = biological target: 3',5'-cyclic-AMP phosphodiesterase 4D (Homo sapiens, UniProt Q08499); assay: Inhibition of human PDE4D2 (86 to 413 residues) expressed in Escherichia coli BL21 codon-plus cells using [3H]cAMP as substrate incubated for 15 mins by liquid scintillation counting method
Mus musculus [29] = assay: Anti-VaD activity against UCCAO-induced spatial memory deficient C57BL/6J mouse model assessed as improvement in spatial learning and memory by measuring increase in latency time at 10 mg/kg, po administered for 21 days by passive avoidance test; assay type: functional, organism-based
[30] = biological target: cGMP-dependent 3',5'-cyclic phosphodiesterase (Homo sapiens, UniProt O00408); assay: Inhibition of human PDE2A (580 to 919 residues) expressed in Escherichia coli BL21 codon-plus cells using [3H]cGMP as substrate incubated for 15 mins by liquid scintillation counting method

T1 sequence (Q07343 whole entry, the tested form may be a part): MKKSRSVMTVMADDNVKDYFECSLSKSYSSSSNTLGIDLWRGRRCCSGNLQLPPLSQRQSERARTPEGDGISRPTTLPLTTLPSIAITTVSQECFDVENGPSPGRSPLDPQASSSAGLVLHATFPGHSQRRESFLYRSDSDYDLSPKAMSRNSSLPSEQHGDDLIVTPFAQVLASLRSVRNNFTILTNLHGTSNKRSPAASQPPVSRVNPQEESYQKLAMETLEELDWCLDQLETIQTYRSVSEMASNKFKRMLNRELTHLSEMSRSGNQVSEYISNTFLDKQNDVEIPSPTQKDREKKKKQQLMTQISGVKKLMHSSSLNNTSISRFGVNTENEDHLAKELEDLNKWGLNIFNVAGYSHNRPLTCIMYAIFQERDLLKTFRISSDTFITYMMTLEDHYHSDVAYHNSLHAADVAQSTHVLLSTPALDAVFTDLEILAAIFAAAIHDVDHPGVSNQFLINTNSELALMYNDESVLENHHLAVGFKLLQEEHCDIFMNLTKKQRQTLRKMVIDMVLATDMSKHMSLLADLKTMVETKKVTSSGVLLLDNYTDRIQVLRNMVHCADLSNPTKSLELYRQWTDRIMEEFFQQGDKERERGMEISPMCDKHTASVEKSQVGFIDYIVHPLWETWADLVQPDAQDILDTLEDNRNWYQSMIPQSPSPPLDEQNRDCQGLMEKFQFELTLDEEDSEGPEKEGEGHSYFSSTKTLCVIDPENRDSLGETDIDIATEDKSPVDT
cGMP-inhibited 3',5'-cyclic phosphodiesterase 3A, sequence (Q14432 whole entry, the tested form may be a part): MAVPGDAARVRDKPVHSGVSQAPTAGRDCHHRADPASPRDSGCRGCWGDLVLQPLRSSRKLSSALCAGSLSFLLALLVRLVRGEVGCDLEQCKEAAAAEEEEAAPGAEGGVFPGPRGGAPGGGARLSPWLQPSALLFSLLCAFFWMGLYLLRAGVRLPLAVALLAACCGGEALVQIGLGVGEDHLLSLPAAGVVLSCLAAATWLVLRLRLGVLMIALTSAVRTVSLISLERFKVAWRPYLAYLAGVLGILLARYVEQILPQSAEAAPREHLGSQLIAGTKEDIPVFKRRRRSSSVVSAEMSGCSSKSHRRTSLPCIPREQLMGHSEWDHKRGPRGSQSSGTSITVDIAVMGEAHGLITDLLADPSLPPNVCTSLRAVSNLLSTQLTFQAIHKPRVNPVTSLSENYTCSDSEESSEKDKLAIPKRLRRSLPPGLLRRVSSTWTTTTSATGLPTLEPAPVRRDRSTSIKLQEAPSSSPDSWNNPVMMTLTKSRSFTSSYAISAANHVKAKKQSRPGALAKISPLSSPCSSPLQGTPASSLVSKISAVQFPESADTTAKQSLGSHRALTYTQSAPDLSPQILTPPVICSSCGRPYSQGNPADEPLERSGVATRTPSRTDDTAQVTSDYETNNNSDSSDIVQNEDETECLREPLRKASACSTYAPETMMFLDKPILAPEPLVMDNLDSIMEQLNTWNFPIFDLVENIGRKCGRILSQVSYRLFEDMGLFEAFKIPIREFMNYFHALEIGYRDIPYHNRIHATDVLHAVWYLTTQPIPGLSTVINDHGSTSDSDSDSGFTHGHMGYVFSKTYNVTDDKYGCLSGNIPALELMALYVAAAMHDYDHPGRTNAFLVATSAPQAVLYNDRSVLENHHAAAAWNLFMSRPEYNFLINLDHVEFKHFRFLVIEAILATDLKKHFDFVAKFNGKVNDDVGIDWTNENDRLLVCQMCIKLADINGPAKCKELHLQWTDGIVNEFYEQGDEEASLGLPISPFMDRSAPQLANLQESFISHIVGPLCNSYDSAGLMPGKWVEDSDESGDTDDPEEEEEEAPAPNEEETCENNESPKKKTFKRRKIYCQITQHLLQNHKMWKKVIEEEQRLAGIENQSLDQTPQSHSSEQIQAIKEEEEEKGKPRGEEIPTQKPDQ
3',5'-cyclic-AMP phosphodiesterase 4D, sequence (Q08499 whole entry, the tested form may be a part): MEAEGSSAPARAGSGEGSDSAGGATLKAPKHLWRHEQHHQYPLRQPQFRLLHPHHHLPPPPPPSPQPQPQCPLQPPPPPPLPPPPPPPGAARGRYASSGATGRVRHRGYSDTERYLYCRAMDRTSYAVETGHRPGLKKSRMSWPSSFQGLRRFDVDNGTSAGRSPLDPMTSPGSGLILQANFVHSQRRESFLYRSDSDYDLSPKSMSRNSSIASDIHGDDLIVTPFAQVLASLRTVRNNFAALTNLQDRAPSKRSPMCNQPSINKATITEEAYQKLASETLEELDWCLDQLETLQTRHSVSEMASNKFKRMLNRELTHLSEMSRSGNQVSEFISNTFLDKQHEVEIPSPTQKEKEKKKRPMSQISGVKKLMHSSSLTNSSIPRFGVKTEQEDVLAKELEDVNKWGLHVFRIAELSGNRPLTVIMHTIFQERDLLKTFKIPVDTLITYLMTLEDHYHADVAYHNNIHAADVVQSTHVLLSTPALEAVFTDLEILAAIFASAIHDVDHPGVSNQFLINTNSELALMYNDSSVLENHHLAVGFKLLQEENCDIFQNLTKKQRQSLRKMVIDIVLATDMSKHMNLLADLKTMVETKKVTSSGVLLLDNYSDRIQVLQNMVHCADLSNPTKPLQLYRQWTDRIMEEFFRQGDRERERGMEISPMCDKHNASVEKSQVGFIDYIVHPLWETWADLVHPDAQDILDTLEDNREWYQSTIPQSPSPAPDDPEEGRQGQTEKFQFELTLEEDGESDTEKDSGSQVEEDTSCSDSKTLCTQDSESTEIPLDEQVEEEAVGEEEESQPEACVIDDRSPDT
Cytochrome P450 1A2, sequence (P05177 whole entry): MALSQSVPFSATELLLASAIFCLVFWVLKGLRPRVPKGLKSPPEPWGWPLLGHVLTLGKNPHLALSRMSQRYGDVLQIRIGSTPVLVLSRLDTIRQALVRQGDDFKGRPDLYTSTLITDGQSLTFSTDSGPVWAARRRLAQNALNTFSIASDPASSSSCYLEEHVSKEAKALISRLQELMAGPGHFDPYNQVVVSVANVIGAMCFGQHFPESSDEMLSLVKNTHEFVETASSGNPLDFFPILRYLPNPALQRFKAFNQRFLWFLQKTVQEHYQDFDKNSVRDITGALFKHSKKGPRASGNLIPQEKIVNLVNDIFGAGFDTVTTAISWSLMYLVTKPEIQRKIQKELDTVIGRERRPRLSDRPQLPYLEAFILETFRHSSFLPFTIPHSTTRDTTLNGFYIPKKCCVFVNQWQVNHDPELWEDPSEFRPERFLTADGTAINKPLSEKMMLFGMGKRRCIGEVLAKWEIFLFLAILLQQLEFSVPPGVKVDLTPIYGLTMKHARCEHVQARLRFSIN
High affinity cAMP-specific and IBMX-insensitive 3',5'-cyclic phosphodiesterase 8A, sequence (O60658 whole entry, the tested form may be a part): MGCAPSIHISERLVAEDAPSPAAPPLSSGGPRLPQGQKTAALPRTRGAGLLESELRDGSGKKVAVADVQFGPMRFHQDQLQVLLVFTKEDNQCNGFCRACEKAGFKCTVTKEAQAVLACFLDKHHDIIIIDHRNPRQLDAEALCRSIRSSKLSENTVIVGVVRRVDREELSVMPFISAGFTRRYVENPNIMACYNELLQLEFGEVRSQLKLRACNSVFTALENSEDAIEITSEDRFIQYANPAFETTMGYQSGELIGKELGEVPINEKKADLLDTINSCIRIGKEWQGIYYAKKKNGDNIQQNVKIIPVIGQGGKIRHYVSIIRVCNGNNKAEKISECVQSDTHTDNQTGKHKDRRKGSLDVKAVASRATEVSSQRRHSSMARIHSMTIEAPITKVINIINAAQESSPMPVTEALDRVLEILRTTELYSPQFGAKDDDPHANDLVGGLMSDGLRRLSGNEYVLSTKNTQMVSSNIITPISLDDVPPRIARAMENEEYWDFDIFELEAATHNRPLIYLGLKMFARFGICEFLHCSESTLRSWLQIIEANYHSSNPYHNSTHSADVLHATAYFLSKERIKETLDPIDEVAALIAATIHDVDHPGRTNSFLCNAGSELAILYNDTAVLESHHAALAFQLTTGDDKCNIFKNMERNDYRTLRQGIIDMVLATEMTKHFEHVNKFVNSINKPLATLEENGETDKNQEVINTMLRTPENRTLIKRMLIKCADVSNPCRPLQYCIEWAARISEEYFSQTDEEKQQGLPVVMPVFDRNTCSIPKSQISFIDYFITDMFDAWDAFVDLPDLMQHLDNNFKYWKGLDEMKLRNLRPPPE
High affinity cGMP-specific 3',5'-cyclic phosphodiesterase 9A, sequence (O76083 whole entry, the tested form may be a part): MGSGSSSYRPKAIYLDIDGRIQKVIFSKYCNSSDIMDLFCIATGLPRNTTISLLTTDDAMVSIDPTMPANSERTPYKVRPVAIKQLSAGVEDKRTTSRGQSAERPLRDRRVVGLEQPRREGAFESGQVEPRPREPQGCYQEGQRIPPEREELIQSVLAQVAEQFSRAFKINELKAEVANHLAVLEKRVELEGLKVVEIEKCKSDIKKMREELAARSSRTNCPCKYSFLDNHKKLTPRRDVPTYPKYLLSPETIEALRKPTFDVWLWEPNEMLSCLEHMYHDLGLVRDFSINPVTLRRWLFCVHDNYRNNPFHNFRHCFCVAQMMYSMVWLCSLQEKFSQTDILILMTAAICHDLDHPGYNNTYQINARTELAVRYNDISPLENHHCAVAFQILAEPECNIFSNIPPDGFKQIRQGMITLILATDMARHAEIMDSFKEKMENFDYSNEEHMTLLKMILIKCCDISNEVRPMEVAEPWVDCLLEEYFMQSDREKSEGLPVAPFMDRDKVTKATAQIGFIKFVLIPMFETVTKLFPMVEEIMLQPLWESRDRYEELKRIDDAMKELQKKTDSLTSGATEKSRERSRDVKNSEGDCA

COc1c(OCCCCCCC(=O)O)cc2oc3cc4c(c(O)c3c(=O)c2c1CC=C(C)C)C=CC(C)(C)O4
IC50 [1]: 3.39 µM
IC50 [2]: > 10 µM
half-life at 0.5 µM [3]: 168 min
Activity (Mus musculus [4]): Active
fraction unbound at 1 µM [5]: 0.01
bioavailability [6]: 28%
half-life [7]: 257 min
Ratio IC50 (Homo sapiens [8]): > 580
Ratio IC50 (Homo sapiens [9]): 36
Ratio IC50 (Homo sapiens [10]): > 580
inhibition [11]: 60%
Activity (Mus musculus [12]): Active
IC50 [13]: > 10 µM
IC50 [14]: 10 nM
IC50 [15]: > 10 µM
Cmax [16]: 661 ng/mL
Activity [17]: 0%
Tmax [18]: 4.98 min
IC50 (Cytochrome P450 3A4): > 10 µM
Activity [19]: Non-Toxic
Ratio IC50 (Homo sapiens [20]): > 580
AUC(0-inf) [21]: 6710 ng·h/mL
Tmax [22]: 4.67 h
IC50 [23]: > 10 µM
Activity [24]: 0%
Cmax [25]: 14100 ng/mL
IC50 (Cytochrome P450 1A2): > 10 µM
IC50 [26]: > 30 µM
Ratio IC50 (Homo sapiens [27]): > 580
IC50 [28]: 17 nM
Activity (Mus musculus [29]): Active
IC50 [30]: > 10 µM
